# Reference: patent US12440476B2, “Agents that target telomerase reverse transcriptase (TERT) for treating cancer and sensitizing cancer cells to genotoxic therapy” (Northwestern University, priority 2022, dated 2025)
# Key:
# Saos-2 cells [1] = test: DNA damage foci staining (53BP1, γH2AX); format: cell-based, human; details: 1 μM NU-1, 0 or 6 Gy
# Protocol: MCF7 or Saos-2 cells were seeded on sterile cover glass at 2.5×10^4 per well in 24-well plates. MCF7 cells were treated with DMSO, NU-2 (0.5 μM), NU-1 (0.5 μM), chrolactomycin (0.5 μM), BIBR 1532 (10 μM), or MST-312 (1 μM) for 1 h, and Saos-2 cells were treated with DMSO or NU-1 (1 μM) for 1 h, followed by 0 or 6 Gy irradiation. 24 h after irradiation, cells were fixed with 4% PFA for 10 min and permeabilized with 0.2% Triton-X 100 diluted in PBS for 10 min at room temperature. After blocking with 5% BSA-PBS for 1 h, primary antibodies for γH2AX (Millipore, 05-636, 1:1000) or 53BP1 (Novus, NB100-304, 1:1000) diluted in 5% BSA-PBS were then incubated on cell slides overnight at 4° C. Following PBS washes, DAPI (1 μg/mL) and fluorescent secondary antibodies (Jackson ImmunoResearch, 1:2000, ) diluted in 5% BSA-PBS were applied for 1 h at room temperature. Cell slides were mounted with ProLong Gold Antifade Mountant (Thermo Fisher Scientific) after PBS washes. Foci images were captured on a Zeiss Axiovert 40CFL with a 40× Plan-NeoFluar objective and pseudo-colored using Fiji. Three replicates were performed.
# MCF7 cells [2] = test: Clonogenic survival after irradiation (radiosensitivity); format: cell-based, human; details: NU-1 0.5 μM
# Protocol: (§1) To assess radiosensitivity, MCF7, Saos-2, or CT26 cells were seeded in 6-well plates at 100 cells per well in triplicate, allowed to attach overnight and treated with DMSO or TERT inhibitors at subtoxic concentrations for 1 h prior to IR. MCF7 cells were treated with 0.5 μM NU-1, 10 μM BIBR 1532, or 1 μM MST-312, Saos-2 cells with 1 μM NU-1 or 20 μM BIBR 1532 and CT26 cells with 1 μM NU-1, 20 μM BIBR 1532 or 2 μM MST-312. Doses of 0, 1, 2, 3, 4, or 5 Gy were applied using a GammaCell ^60Co γ-ray source (Nordion) at a dose rate of 7.09 cGy/sec. After that MCF7 and Saos-2 cells were cultured for 3 weeks and CT26 for 2 weeks, then fixed and stained with crystal violet. Colonies of at least 50 cells were counted. Data from three independent biological replicates were acquired. The surviving fraction (SF) was calculated using the following formula: […]
# Saos-2 cells [3] = test: as above; format: cell-based, human; details: NU-1 1 μM
# Protocol: as §1
# CT26 cells [4] = test: Clonogenicity assay (inhibitor alone); format: cell-based, mouse; details: 1 μM NU-1, 2 μM MST, 20 μM BIBR
# Protocol: MCF7, Saos-2, or CT26 cells were seeded in 6-well plates at 100 cells per well in triplicate and allowed to attach overnight. MCF7 or CT26 cells were then treated with DMSO vehicle or TERT inhibitors in final concentration of 0.25, 0.5, 0.75, 1, 2 μM for NU-1, 2.5, 5, 7.5, 10, 20 μM for BIBR 1532, or 1, 2, 3, 4, 5 μM for MST-312. Saos-2 cells were treated with DMSO vehicle or TERT inhibitors in final concentration of 0.25, 0.5, 0.75, 1, 2 μM for NU-1 or 2.5, 5, 10, 20, 40 μM for BIBR 1532. The final volume of cell culture medium was 3 mL per well. MCF7 and Saos-2 cells were continuously cultured for 3 weeks and CT26 for 2 weeks in the presence of TERT inhibitors, fixed in methanol for 5 min, then stained with 0.5% crystal violet for 10 min at room temperature. After washing with water, the plates were dried at room temperature and imaged with an iBright Imaging System (Thermo Fisher Scientific).
# A549 cells = details: cited from earlier work
# MCF7 cells [5] = details: cited from earlier work
# CT26 cells [6] = test: Clonogenic survival after irradiation (radiosensitivity); format: cell-based, mouse
# Protocol: as §1
smiles,measurement,setting,value
C=C1C(=O)[C@](C)(C(=O)OC)[C@H](CCc2cn(Cc3ccc(F)cc3F)nn2)O[C@@H]1C [NU-1],Effect on 53BP1 or γH2AX foci,Saos-2 cells [1],appeared not to impact 53BP1 or γH2AX foci
same,Radiosensitization in clonogenic survival assay,"MCF7 cells [2]; MCF7, BIBR 10 μM, MST 1 μM, IR 0-5 Gy",strongest effects
same,Mean SF2 (surviving fraction at 2 Gy),"MCF7 cells [2]; MCF7 cells, BIBR 1532 10 μM, MST-312 1 μM for 1 h prior to IR, 2 Gy",0.116
same,Radiosensitization in clonogenic survival assay,"Saos-2 cells [3]; Saos-2 (telomerase negative), BIBR 20 μM",Neither NU-1 nor BIBR displayed radiosensitization
same,Mean SF2 (surviving fraction at 2 Gy),"Saos-2 cells [3]; Saos-2 cells, BIBR 1532 20 μM for 1 h prior to IR, 2 Gy",0.583
same,Tolerance in clonogenic assay (inhibitor alone),CT26 cells [4],tolerated
same,LD50,A549 cells,35 µM
same,LD50,MCF7 cells [5],21 µM
same,Sensitization of CT26 cells to radiation,"CT26 cells [6]; CT26, non-toxic doses",sensitized CT26 cells to radiation
same,Mean SF2 (surviving fraction at 2 Gy),"CT26 cells [6]; CT26 cells, NU-1 1 μM, BIBR 1532 20 μM, MST-312 2 μM for 1 h prior to IR, 2 Gy",0.322
